Literature values as cited in US7375230B2, “Fermentation and purification of migrastatin and analog” (Kosan Biosciences, Inc., priority 2000, dated 2008).

What was measured:
[1] = system: human esophageal cancer EC17 cells; conditions: compared with clarithromycin and erythromycin
mouse melanoma B16 cells = conditions: compared with clarithromycin and erythromycin

Q: Which “effectiveness against the migration of cells” value [1] does the source give for `CO[C@H]1/C=C/CC/C=C/C(=O)O[C@H]([C@H](C)C(=O)CCCC2CC(=O)NC(=O)C2)/C(C)=C\[C@@H](C)[C@@H]1O` [Migrastatin, migrastatin] here?
A: more effective than clarithromycin and erythromycin

Q: What about the “effectiveness against the migration of cells” value (mouse melanoma B16 cells) of the same compound?
A: more effective than clarithromycin and erythromycin
